The target of the first assay is MMP-13 (catalytic domain of collagenase 3) (Homo sapiens, UniProt P45452). Kind of assay: Thiopeptolide substrate hydrolysis assay, MMP-13. The assay is classed as biochemical. The conditions noted are these: catalytic domain of collagenase 3; Table 1; read-out: MMP-13 IC50. From the text:
The assays used to evaluate the biological activity of the invention compounds are well known and routinely used by those skilled in the study of MMP inhibitors and their use to treat clinical conditions.
The assays measure the amount by which a test compound reduces the hydrolysis of a thiopeptolide substrate catalyzed by a matrix metalloproteinase enzyme. Such assays are described in detail by Ye et al., in Biochemistry, 1992; 31(45):11231–11235, which is incorporated herein by reference.
Thiopeptolide substrates show virtually no decomposition or hydrolysis at or below neutral pH in the absence of a matrix metalloproteinase enzyme. A typical thiopeptolide substrate commonly utilized for assays is Ac-Pro-Leu-Gly-thioester-Leu-Leu-Gly-OEt. A 100-μL assay mixture will contain 50 mM of N-2-hydroxyethylpiperazine-N′-2-ethanesulfonic acid buffer (“HEPES”) at pH 7.0, 10 mM CaCl2, 100 μM thiopeptolide substrate, and 1 mM 5,5′-dithio-bis-(2-nitro-benzoic acid) (DTNB). The thiopeptolide substrate concentration may be varied from, for example, 10 to 800 μM to obtain Km and Kcat values. The change in absorbance at 405 nm is monitored on a Thermo Max microplate reader (Molecular Devices, Menlo Park, Calif.) at room temperature (22° C.). The calculation of the amount of hydrolysis of the thiopeptolide substrate is based on E412=13600 M^−1 cm^−1 for the DTNB-derived product 3-carboxy-4-nitrothiophenoxide. Assays are carried out with and without matrix metalloproteinase inhibitor compounds, and the amount of hydrolysis is compared for a determination of inhibitory activity of the test compounds.
In the tables, MMP-1 refers to full-length interstitial collagenase; MMP-3 refers to the catalytic domain of stromelysin-1; MMP-13 refers to the catalytic domain of collagenase 3. Test compounds were evaluated at various concentrations to determine their respective IC50 values.
As to `COc1ncc(C(=O)NCc2ccc3c(c2)OCO3)cc1C(=O)NCc1ccc2c(c1)OCO2` [Example 4, 2-Methoxy-pyridine-3,5-dicarboxylic acid bis-[(1,3-benzodioxol-5-ylmethyl)-amide]], the IC50 is 230 nM.
The same measure, in the same setting: for `O=C(NCc1ccc2c(c1)OCO2)c1ccnc(C(=O)NCc2ccc3c(c2)OCO3)c1` [Example 8, Pyridine-2,4-dicarboxylic acid bis-[(1,3-benzodioxol-5-ylmethyl)-amide]] the value was 14 nM; for `COc1cccc(CNC(=O)c2ccnc(C(=O)NCc3cccc(OC)c3)c2)c1` [Example 1, Pyridine-2,4-dicarboxylic acid bis-(3-methoxy-benzylaride)], 35 nM.

The assay is the same for the next values; noted with them: catalytic domain, human; combinatorial compounds of Example 14; Table 2; read-out: MMP-13 IC50 CD/Human.
`COc1ccc(C(NC(=O)c2ccnc(C(=O)NC(c3ccc(OC)cc3)c3ccc(OC)cc3)c2)c2ccc(OC)cc2)cc1` [Example 14.46, Pyridine-2,4-dicarboxylic acid bis-{[bis-(4-methoxy-phenyl)-methyl]-amide}]: the IC50 was 30000 nM.
The same measure, in the same setting: with “Pyridine-2,4-dicarboxylic acid bis-benzylamide [Example 14.5]” the figure was 290 nM; with `COc1ccc(CNC(=O)c2ccnc(C(=O)NCc3ccc(OC)cc3)c2)cc1` [Example 14.8, Pyridine-2,4-dicarboxylic acid bis-(4-methoxy-benzylamide)], 130 nM.
Still for that read-out and setting: for `O=C(NCc1cccs1)c1ccnc(C(=O)NCc2cccs2)c1` [Example 14.60, Pyridine-2,4-dicarboxylic acid bis-[(thiophen-2-ylmethyl)-amide]] the value was 13000 nM; for `O=C(NCCc1c[nH]c2ccccc12)c1ccnc(C(=O)NCCc2c[nH]c3ccccc23)c1` [Example 14.79, Pyridine-2,4-dicarboxylic acid bis-{[2-(1H-indol-3-yl)-ethyl]-amide}], 30000 nM.
On to `O=C(NCc1ccc(Cl)cc1Cl)c1ccnc(C(=O)NCc2ccc(Cl)cc2Cl)c1` [Example 14.22, Pyridine-2,4-dicarboxylic acid bis-(2,4-dichloro-benzylamide)], for which the IC50 is 30000 nM.
On the same count and under the same terms, for `O=C(NCc1cccc(F)c1)c1ccnc(C(=O)NCc2cccc(F)c2)c1` [Example 14.9, Pyridine-2,4-dicarboxylic acid bis-(3-fluoro-benzylamide)] the value was 180 nM; for `O=C(NCc1cccc(OC(F)(F)F)c1)c1ccnc(C(=O)NCc2cccc(OC(F)(F)F)c2)c1` [Example 14.67, Pyridine-2,4-dicarboxylic acid bis-(3-trifluoromethoxy-benzylamide)], 4000 nM; for `O=C(NCc1ccc(Cl)cc1)c1ccnc(C(=O)NCc2ccc(Cl)cc2)c1` [Example 14.4, Pyridine-2,4-dicarboxylic acid bis-(4-chloro-benzylamide)], 300 nM.
As to `Nc1ccc(CNC(=O)c2ccnc(C(=O)NCc3ccc(N)cc3)c2)cc1` [Example 14.44, Pyridine-2,4-dicarboxylic acid bis-(4-amino-benzylamide)], the IC50 worked out at 70000 nM.
Still for that read-out and setting: with `CC(NC(=O)c1ccnc(C(=O)NC(C)c2cccc3ccccc23)c1)c1cccc2ccccc12` (stereo not shown) [Example 14.65, Pyridine-2,4-dicarboxylic acid bis-[(1-naphthalen-1-yl-ethyl)-amide]] the figure was 30000 nM; with `COc1cccc(CNC(=O)c2ccnc(C(=O)NCc3cccc(OC)c3)c2)c1` [Example 14.1, Pyridine-2,4-dicarboxylic acid bis-(3-methoxy-benzylamide)], 38 nM.
On to `O=C(NCc1ccccc1F)c1ccnc(C(=O)NCc2ccccc2F)c1` [Example 14.50, Pyridine-2,4-dicarboxylic acid bis-(2-fluoro-benzylamide)], for which the IC50 was 84000 nM.
Still for that read-out and setting: with `O=C(NCc1ccncc1)c1ccnc(C(=O)NCc2ccncc2)c1` [Example 14.32, Pyridine-2,4-dicarboxylic acid bis-[(pyridin-4-ylmethyl)-amide]] the figure was 2000 nM; with `O=C(NCc1ccc(F)c(Cl)c1)c1ccnc(C(=O)NCc2ccc(F)c(Cl)c2)c1` [Example 14.42, Pyridine-2,4-dicarboxylic acid bis-(3-chloro-4-fluoro-benzylamide)], 40 nM; with `O=C(NCc1cccc(Cl)c1)c1ccnc(C(=O)NCc2cccc(Cl)c2)c1` [Example 14.25, Pyridine-2,4-dicarboxylic acid bis-(3-chloro-benzylamide)], 74 nM.
On the same count and under the same terms, with `O=C(NCc1cccnc1)c1ccnc(C(=O)NCc2cccnc2)c1` [Example 14.57, Pyridine-2,4-dicarboxylic acid bis-[(pyridin-3-ylmethyl)-amide]] the figure was 34000 nM; with `O=C(NCc1cccc2ccccc12)c1ccnc(C(=O)NCc2cccc3ccccc23)c1` [Example 14.6, Pyridine-2,4-dicarboxylic acid bis-[(naphthalen-1-ylmethyl)-amide]], 30000 nM.
On the same count and under the same terms, for `O=C(NCc1ccc2c(c1)OCO2)c1ccnc(C(=O)NCc2ccc3c(c2)OCO3)c1` [Example 14.2, Pyridine-2,4-dicarboxylic acid bis-[(1,3-benzodioxol-5-ylmethyl)-amide]] the value was 33 nM; for `O=C(NCc1cccc(C(F)(F)F)c1)c1ccnc(C(=O)NCc2cccc(C(F)(F)F)c2)c1` [Example 14.35, Pyridine-2,4-dicarboxylic acid bis-(3-trifluoromethyl-benzylamide)], 310 nM.
In the case of `O=C(NCc1ccccc1-c1ccccc1)c1ccnc(C(=O)NCc2ccccc2-c2ccccc2)c1` [Example 14.23, Pyridine-2,4-dicarboxylic acid bis-[(biphenyl-2-ylmethyl)-amide]], the IC50 was determined as 30000 nM.
For the compound `O=C(NCc1cccc(OC(F)F)c1)c1ccnc(C(=O)NCc2cccc(OC(F)F)c2)c1` [Example 14.37, Pyridine-2,4-dicarboxylic acid bis-(3-difluoromethoxy-benzylamide)], the IC50 was 260 nM.
For `O=C(NCc1ccc(C(F)(F)F)cc1)c1ccnc(C(=O)NCc2ccc(C(F)(F)F)cc2)c1` [Example 14.61, Pyridine-2,4-dicarboxylic acid bis-(4-trifluoromethyl-benzylamide)], the IC50 amounted to 30000 nM.
For the compound `O=C(NCc1ccc(F)c(C(F)(F)F)c1)c1ccnc(C(=O)NCc2ccc(F)c(C(F)(F)F)c2)c1` [Example 14.39, Pyridine-2,4-dicarboxylic acid bis-(4-fluoro-3-trifluoromethyl-benzylamide)], the IC50 came to 280 nM.
Same read-out and setting: for `Cc1ccc(CNC(=O)c2ccnc(C(=O)NCc3ccc(C)cc3)c2)cc1` [Example 14.54, Pyridine-2,4-dicarboxylic acid bis-(4-methyl-benzylamide)] the value was 1500 nM.
On the same count and under the same terms, for `Cc1ccc(CNC(=O)c2ccnc(C(=O)NCc3ccc(C)o3)c2)o1` [Example 14.62, Pyridine-2,4-dicarboxylic acid bis-[(5-methyl-furan-2-ylmethyl)-amide]] the value was 88000 nM; for `O=C(NCCC(c1ccccc1)c1ccccc1)c1ccnc(C(=O)NCCC(c2ccccc2)c2ccccc2)c1` [Example 14.47, Pyridine-2,4-dicarboxylic acid bis-[(3,3-diphenyl-propyl)-amide]], 30000 nM.
Same read-out and setting: for `COc1ccc2[nH]cc(CCNC(=O)c3ccnc(C(=O)NCCc4c[nH]c5ccc(OC)cc45)c3)c2c1` [Example 14.78, Pyridine-2,4-dicarboxylic acid bis-{[2-(5-methoxy-1H-indol-3-yl)-ethyl]-amide}] the value was 30000 nM.

Values taken from US7015237B2, “Pyridine matrix metalloproteinase inhibitors” (Warner-Lambert Company, priority 2001, dated 2006).
